In BindingDB's records for doi:10.1016/j.ejmech.2019.111919 (University of Auckland, 2020):
pIC50, pKd, pKi: −log10 of the molar value.

Legend:
[1] = Inhibition of Bacillus cereus PC-phospholipase C using phosphoryl-choline as substrate by molybdenum blue dye based assay
[2] = Inhibition of Bacillus cereus phospholipase C using L-alpha-phosphatidylcholine as substrate by Lineweaver-Burk plot analysis
[3] = target: Phosphatidylcholine-specific phospholipase C (Bacillus cereus) (UniProt P09598); assay: Binding affinity to Bacillus cereus N-terminal His6-tagged full length PC-PLC 3C Protease cleavage site expressed in Escherichia coli BL21(DE3) cells using 3,3-dimethylglutaratic acid as substrate by intrinsic fluorescence assay
[4] = target: Phosphatidylcholine-specific phospholipase C (Bacillus cereus) (UniProt P09598); assay: Inhibition of recombinant Bacillus cereus N-terminal His6-tagged full length PC-PLC 3C Protease cleavage site expressed in Escherichia coli BL21(DE3) cells using phosphatidylcholine as substrate by amplex red assay relative to control

Chain of Phosphatidylcholine-specific phospholipase C (Bacillus cereus) (P09598 whole entry, looked up): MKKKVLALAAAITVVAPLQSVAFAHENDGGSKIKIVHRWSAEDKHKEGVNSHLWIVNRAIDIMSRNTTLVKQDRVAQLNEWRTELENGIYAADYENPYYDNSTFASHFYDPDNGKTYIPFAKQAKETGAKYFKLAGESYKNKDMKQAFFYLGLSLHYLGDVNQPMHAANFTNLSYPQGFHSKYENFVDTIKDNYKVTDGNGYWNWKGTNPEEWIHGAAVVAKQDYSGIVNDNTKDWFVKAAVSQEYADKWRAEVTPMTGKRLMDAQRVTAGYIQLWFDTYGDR

O=C1N(O)CCCCN1O
pKi [1]: 4.15

CCCCCOC(=O)CC(CSP(=O)([O-])OCC[N+](C)(C)C)C(=O)OCCCCC (stereo not drawn)
pKi [2]: 5.15

O=C(O)c1cc(NCc2ccccc2Cl)ccc1N1CCOCC1
pKd [3]: 3.49
pIC50 [4]: 5.44

O=C(O)c1cc(NCc2cccc(Cl)c2)ccc1N1CCOCC1
pIC50 [4]: 5.31

O=C(O)c1cc(NCc2cccc(Br)c2)ccc1N1CCOCC1
pIC50 [4]: 5.43

O=C(O)C1Cc2c([nH]c3ccccc23)C(c2ccc(O)c(O)c2)N1 (stereo not drawn)
pIC50 [4]: 5.51

CN(C)c1ccc(C2NC(C(=O)O)Cc3c2[nH]c2ccccc32)cc1 (stereo not drawn)
pIC50 [4]: 4.96
